# Reference: ChEMBL document CHEMBL3414527, “Engineering potent and selective analogues of GpTx-1, a tarantula venom peptide antagonist of the Na(V)1.7 sodium channel” (J Med Chem, 2015)
# Bridge positions count the residues as written; N and C are the ends. Peptide text beside a SMILES is read from it.
# Biological target: Sodium channel protein type 5 subunit alpha (Homo sapiens, UniProt Q14524)
# Assay: Inhibition of human NaV1.5 at -140 mV holding potential by whole-cell patch clamp assay
# Sequence of Sodium channel protein type 5 subunit alpha (Q14524 whole entry): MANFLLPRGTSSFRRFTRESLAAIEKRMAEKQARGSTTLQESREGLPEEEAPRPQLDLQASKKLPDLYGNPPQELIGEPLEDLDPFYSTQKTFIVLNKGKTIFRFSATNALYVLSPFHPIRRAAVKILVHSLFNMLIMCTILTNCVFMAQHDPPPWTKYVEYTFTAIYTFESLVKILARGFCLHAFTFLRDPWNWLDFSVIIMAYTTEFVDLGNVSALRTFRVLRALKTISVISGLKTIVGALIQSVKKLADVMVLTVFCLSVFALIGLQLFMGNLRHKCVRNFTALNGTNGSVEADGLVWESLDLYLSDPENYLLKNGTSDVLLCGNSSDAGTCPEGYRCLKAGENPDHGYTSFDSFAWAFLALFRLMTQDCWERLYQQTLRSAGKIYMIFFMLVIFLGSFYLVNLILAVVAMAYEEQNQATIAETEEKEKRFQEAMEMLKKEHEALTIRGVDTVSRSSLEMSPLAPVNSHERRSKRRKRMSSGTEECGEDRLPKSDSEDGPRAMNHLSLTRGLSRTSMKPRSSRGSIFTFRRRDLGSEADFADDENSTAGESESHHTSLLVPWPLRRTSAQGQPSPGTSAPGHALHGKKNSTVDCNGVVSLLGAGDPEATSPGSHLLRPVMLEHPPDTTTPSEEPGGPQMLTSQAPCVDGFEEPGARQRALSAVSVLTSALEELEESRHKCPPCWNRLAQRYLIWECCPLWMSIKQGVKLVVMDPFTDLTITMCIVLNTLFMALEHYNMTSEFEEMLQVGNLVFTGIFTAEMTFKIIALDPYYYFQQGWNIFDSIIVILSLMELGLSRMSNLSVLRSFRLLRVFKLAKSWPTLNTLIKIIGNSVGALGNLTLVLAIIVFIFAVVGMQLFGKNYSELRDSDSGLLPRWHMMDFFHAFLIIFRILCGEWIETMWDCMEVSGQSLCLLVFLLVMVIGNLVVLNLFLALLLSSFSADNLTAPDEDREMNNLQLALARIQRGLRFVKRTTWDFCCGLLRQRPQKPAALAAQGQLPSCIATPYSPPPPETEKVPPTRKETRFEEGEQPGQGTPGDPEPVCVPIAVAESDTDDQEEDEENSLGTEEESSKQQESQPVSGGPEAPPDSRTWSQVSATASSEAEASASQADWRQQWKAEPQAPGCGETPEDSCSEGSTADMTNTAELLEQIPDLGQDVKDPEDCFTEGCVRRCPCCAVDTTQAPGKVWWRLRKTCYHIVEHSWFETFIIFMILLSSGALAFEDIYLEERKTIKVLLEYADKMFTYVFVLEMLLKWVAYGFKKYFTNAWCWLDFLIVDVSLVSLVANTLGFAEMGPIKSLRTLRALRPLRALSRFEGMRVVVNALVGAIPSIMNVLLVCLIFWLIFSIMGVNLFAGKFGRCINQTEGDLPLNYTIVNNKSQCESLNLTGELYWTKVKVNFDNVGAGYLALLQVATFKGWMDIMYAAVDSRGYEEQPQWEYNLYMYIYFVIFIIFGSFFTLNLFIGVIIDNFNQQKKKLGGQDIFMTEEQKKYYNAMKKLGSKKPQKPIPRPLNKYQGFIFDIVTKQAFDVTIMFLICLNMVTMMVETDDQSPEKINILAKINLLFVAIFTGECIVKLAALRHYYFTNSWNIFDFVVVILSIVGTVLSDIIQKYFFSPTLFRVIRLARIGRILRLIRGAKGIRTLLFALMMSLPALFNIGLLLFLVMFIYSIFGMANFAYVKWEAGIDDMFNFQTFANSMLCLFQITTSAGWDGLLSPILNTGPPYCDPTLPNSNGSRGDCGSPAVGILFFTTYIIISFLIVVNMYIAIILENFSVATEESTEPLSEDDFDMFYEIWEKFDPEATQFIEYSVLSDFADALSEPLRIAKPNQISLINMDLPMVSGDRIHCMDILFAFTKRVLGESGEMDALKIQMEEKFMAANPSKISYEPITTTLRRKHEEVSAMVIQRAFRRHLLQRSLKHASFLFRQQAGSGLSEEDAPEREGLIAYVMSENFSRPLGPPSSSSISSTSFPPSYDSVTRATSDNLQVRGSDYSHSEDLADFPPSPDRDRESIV
row,Structure (SMILES),IC50 [µM]
1,"CC[C@H](C)[C@@H]1NC(=O)[C@@H]2CSSC[C@@H]3NC(=O)[C@H](C(C)C)NC(=O)[C@H](CC(C)C)NC(=O)[C@H](CC(N)=O)NC(=O)[C@@H]4CCCN4C(=O)[C@H](CCCNC(=N)N)NC(=O)[C@H](CSSC[C@H](NC(=O)[C@@H](N)CC(=O)O)C(=O)N[C@@H](CC(C)C)C(=O)NCC(=O)N[C@@H](C)C(=O)N[C@@H](Cc4ccccc4)C(=O)N[C@@H](CCCNC(=N)N)C(=O)N[C@@H](CCCCN)C(=O)N2)NC(=O)[C@H](CSSC[C@@H](C(=O)N[C@@H](CCCCN)C(=O)N[C@@H](Cc2ccc(O)cc2)C(=O)N[C@H](C(=O)N[C@@H](Cc2ccccc2)C(N)=O)C(C)C)NC(=O)[C@H](Cc2c[nH]c4ccccc24)NC(=O)[C@H](CCCCN)NC(=O)[C@H](Cc2cnc[nH]2)NC(=O)[C@H](CC(C)C)NC(=O)[C@H](CCCNC(=N)N)NC(=O)[C@H](CO)NC3=O)NC(=O)[C@H](CCCCN)NC(=O)[C@H](CC(=O)O)NC(=O)[C@H](CC(N)=O)NC(=O)[C@H](CC(=O)O)NC(=O)[C@@H]2CCCN2C1=O (H-DCLGAFRKCIPDNDKCCRPNLVCSRLHKWCKYVF-NH2; disulfide 2-17, 9-23, 16-30)",> 10
2,CCCC[C@@H]1NC(=O)[C@H](C)NC(=O)CNC(=O)[C@H](CC(C)C)NC(=O)[C@@H](NC(=O)[C@@H](N)CC(=O)O)CSSC[C@@H]2NC(=O)[C@@H]3CSSC[C@@H](C(=O)N[C@@H](CCCCN)C(=O)N[C@@H](Cc4ccc(O)cc4)C(=O)N[C@H](C(=O)N[C@@H](Cc4ccccc4)C(N)=O)C(C)C)NC(=O)[C@H](Cc4c[nH]c5ccccc45)NC(=O)[C@H](CCCCN)NC(=O)[C@H](Cc4cnc[nH]4)NC(=O)[C@H]([C@@H](C)O)NC(=O)[C@H](CCCNC(=N)N)NC(=O)[C@H](CO)NC(=O)[C@H](CSSC[C@H](NC(=O)[C@H](CCCCN)NC(=O)[C@H](CCCNC(=N)N)NC1=O)C(=O)N[C@@H]([C@@H](C)CC)C(=O)N1CCC[C@H]1C(=O)N[C@@H](CC(=O)O)C(=O)N[C@@H](CC(N)=O)C(=O)N[C@@H](CC(=O)O)C(=O)N[C@@H](CCCCN)C(=O)N3)NC(=O)[C@H](C(C)C)NC(=O)[C@H](CC(C)C)NC(=O)[C@H](CC(N)=O)NC(=O)[C@@H]1CCCN1C(=O)[C@H](CCCNC(=N)N)NC2=O,> 10
3,CC[C@H](C)[C@@H]1NC(=O)[C@@H]2CSSC[C@@H]3NC(=O)[C@H](C(C)C)NC(=O)[C@H](CC(C)C)NC(=O)[C@H](CC(N)=O)NC(=O)[C@@H]4CCCN4C(=O)[C@H](CCCNC(=N)N)NC(=O)[C@H](CSSC[C@H](NC(=O)[C@H](CC(=O)O)NC(=O)[C@H](C)N)C(=O)N[C@@H](CC(C)C)C(=O)NCC(=O)N[C@@H](Cc4ccccc4)C(=O)N[C@@H](CCSC)C(=O)N[C@@H](CCCNC(=N)N)C(=O)N[C@@H](CCCCN)C(=O)N2)NC(=O)[C@H](CSSC[C@@H](C(=O)N[C@@H](CCCCN)C(=O)N[C@@H](Cc2ccc(O)cc2)C(=O)N[C@H](C(=O)N[C@@H](Cc2ccccc2)C(N)=O)C(C)C)NC(=O)[C@H](Cc2c[nH]c4ccccc24)NC(=O)[C@H](CCCCN)NC(=O)[C@H](Cc2cnc[nH]2)NC(=O)[C@H]([C@@H](C)O)NC(=O)[C@H](CCCNC(=N)N)NC(=O)[C@H](CO)NC3=O)NC(=O)[C@H](CCCCN)NC(=O)[C@H](CC(=O)O)NC(=O)[C@H](CC(N)=O)NC(=O)[C@H](CC(=O)O)NC(=O)[C@@H]2CCCN2C1=O,> 5
